The source of these data is patent publication US4900748A (priority 1988, dated 1990).

The term IC50 denotes the concentration needed to halve the response being measured.

Like-named read-outs stand apart in the source and are kept apart here.

Experiment [1] concerns the target Acetylcholinesterase (Cortex) (Homo sapiens, UniProt P22303). Nature of the experiment: biochemical.
In experiment [2] the target is Acetylcholinesterase (Caudate) (Homo sapiens, UniProt P22303). As to the kind of experiment: biochemical.
Sequence of Acetylcholinesterase (Caudate) (P22303 32-614): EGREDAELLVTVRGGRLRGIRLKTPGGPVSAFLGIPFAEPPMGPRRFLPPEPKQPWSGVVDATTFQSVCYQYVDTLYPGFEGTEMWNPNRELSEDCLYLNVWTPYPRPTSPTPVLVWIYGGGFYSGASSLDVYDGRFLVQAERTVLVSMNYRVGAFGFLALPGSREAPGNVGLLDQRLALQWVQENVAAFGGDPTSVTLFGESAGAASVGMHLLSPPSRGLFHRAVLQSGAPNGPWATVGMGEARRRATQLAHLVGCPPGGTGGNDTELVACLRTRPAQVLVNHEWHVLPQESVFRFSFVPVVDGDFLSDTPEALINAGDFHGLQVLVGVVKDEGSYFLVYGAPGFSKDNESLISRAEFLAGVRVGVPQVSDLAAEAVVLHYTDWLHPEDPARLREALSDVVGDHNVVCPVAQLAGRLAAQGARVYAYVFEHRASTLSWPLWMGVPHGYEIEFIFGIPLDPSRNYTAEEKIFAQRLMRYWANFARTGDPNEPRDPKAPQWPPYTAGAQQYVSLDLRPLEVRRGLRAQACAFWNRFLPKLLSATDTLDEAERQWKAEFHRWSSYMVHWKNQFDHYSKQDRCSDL
Experiment [3] addresses Acetylcholinesterase (RBC) (Homo sapiens, UniProt P22303). As to the kind of experiment: biochemical.
The target in experiment [4] is Acetylcholinesterase (Eel) (Electrophorus electricus, UniProt O42275). Nature of the experiment: biochemical.
Sequence of Acetylcholinesterase (Eel) (O42275 24-633): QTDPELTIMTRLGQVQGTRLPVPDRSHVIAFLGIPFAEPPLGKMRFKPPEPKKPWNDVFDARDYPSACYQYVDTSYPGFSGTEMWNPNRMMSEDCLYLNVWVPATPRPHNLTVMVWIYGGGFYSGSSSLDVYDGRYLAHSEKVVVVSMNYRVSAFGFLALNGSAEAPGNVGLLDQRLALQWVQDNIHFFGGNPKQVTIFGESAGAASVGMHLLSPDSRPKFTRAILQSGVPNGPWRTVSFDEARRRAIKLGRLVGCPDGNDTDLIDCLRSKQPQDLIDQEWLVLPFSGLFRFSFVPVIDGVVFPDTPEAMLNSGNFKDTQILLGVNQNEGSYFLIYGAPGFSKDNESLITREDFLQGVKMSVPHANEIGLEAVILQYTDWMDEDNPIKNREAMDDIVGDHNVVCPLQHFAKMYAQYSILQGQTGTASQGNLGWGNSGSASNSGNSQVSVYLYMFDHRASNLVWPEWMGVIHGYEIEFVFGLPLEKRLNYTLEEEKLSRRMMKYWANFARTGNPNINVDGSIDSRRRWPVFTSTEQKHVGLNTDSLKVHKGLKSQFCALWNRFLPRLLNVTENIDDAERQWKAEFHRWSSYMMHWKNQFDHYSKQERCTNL
Experiment [5] has as its target Butyrylcholinesterase (Cortex) (Homo sapiens, UniProt P06276). As to the kind of experiment: biochemical.
Experiment [6] concerns the target Butyrylcholinesterase (Plasma) (Homo sapiens, UniProt P06276). Nature of the experiment: biochemical.
For the next experiment, the system named is acetylcholinesterase. It counts as biochemical. The following applies: for IC50: read-out: IC50, antiacetylcholinesterase (approximate).
Experiment [7] deals with acetyl- and butyryl-cholinesterase. The format is biochemical.
Another experiment relates to nicotinic AChR. Particulars: cited from earlier work.
The test system of another experiment is butyrylcholinesterase. It counts as biochemical.
The next experiment relates to neuromuscular AChR. The following applies: cited from earlier work.
The mark [8] stands for this setting: read-out: IC50 Acetylcholinesterase Cortex.
The mark [9] stands for this setting: read-out: IC50 Acetylcholinesterase Caudate.
The mark [10] stands for this setting: read-out: IC50 Acetylcholinesterase RBC.
[11] abbreviates: read-out: IC50 Acetylcholinesterase Eel.
Setting [12] is: read-out: IC50 Butyrylcholinesterase Cortex.
Setting [13] is: read-out: IC50 Butyrylcholinesterase Plasma.

Sequence of Acetylcholinesterase (RBC) (P22303-2 with tags, fused parts or gaps limits assumed): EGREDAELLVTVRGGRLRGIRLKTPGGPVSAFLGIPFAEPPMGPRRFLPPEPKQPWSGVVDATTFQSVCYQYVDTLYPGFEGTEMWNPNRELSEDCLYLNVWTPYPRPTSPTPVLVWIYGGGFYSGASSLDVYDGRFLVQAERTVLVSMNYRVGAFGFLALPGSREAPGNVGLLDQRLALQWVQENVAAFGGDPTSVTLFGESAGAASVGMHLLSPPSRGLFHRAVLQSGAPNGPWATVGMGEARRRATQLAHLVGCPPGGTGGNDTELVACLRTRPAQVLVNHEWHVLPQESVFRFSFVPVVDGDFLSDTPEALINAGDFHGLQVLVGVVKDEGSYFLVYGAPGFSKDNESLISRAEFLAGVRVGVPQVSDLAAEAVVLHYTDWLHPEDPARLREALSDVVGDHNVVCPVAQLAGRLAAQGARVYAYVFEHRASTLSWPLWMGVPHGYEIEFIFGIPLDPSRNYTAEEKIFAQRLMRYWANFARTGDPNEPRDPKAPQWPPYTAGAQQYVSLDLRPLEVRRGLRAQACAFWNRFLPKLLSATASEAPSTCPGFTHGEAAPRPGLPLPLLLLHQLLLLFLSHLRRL
Sequence of Butyrylcholinesterase (Plasma) (P06276 29-602): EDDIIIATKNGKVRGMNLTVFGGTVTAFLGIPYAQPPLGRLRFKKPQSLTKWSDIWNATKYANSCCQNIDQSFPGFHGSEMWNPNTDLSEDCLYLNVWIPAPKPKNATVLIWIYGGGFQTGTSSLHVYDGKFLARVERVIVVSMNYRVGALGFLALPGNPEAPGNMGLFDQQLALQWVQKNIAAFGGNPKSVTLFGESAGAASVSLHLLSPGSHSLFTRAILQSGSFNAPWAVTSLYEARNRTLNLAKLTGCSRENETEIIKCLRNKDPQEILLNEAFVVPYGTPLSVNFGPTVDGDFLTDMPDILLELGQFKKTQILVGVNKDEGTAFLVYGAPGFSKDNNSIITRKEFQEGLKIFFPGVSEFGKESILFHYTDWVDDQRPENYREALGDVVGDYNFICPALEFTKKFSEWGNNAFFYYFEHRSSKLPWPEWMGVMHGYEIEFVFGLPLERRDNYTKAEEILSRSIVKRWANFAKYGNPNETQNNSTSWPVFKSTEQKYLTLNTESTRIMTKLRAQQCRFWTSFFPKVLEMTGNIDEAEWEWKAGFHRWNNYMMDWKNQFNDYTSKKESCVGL
Sequence of Butyrylcholinesterase (Cortex) (P06276 29-602): as above
Sequence of Acetylcholinesterase (Cortex) (P22303 32-614): as the sequence (P22303 32-614) above

As for `CN1CC[C@@]2(C)c3cc(OC(=O)Nc4ccc(Cl)cc4)ccc3N(C)[C@@H]12` [YU-116, chlorophenyl carbamoyleseroline], the IC50 in [1] came to 0.417 ± 0.088 µM; in experiment [2], 0.448 ± 0.029 µM; in [3] it was 0.654 ± 0.032 µM; in experiment [4] it was 1.8 ± 0.085 µM; in experiment [5] it was 4.46 ± 1.29 µM; in [6], 4 ± 0.052 µM. At acetylcholinesterase, the IC50 was ~0.5 µM. The “antiacetylcholinesterase potency in words” value in the experiment on acetylcholinesterase is given as “much less against acetylcholinesterase”. For the same compound, in the experiment with acetylcholinesterase, the “reduction of antiacetylcholinesterase potency” value is recorded as “approximately 10 fold”. Besides, in [7], the “specificity acetyl- versus butyryl-cholinesterase” value was “relatively specific for acetyl- rather than butyryl-cholinesterase”.

Turning to `CN1CC[C@@]2(C)c3cc(OC(=O)Nc4ccccc4)ccc3N(C)[C@@H]12` [YU-79, eseroline phenylcarbamate], the IC50 in experiment [1] (setting [8]) amounted to 0.036 ± 0.003 µM; in experiment [2] (setting [9]) it was 0.021 ± 0.001 µM; in [3] (setting [10]) it was 0.024 ± 0.006 µM; in experiment [4] (setting [11]), 0.35 ± 0.09 µM; in [5] (setting [12]), 2.5 µM; in experiment [6] (setting [13]), 1.3 µM. Further, at acetylcholinesterase, the IC50 was ~0.03 µM. For the same compound, in experiment [7], the “specificity acetyl- versus butyryl-cholinesterase” value is “relatively specific for acetyl- rather than butyryl-cholinesterase”.

Consider `CCCCNC(=O)Oc1ccc2c(c1)[C@]1(C)CCN(C)[C@@H]1N2C` [YU-120, butylcabamoyl eseroline], for which the IC50 in experiment [1] amounted to 0.0208 ± 0.0037 µM; in experiment [2], 0.0203 ± 0.0068 µM; in [3], 0.0176 ± 0.0091 µM; in [4], 0.152 ± 0.009 µM; in experiment [5], 0.016 ± 0.0044 µM; in [6], 0.00413 ± 0.00125 µM. Further, in experiment [7], the “effect of shortening the side chain on potency against acetyl- or butyryl-cholinesterase” value was “does not alter the potency of the compound against either acetyl- or butyryl-cholinesterase”.

As for `CC(C)NP(=O)(NC(C)C)OP(=O)(NC(C)C)NC(C)C` [iso-OMPA, reference compound], in experiment [4], the IC50 is > 1000 µM.

Take `CN1CC[C@@]2(C)c3cc(O)ccc3N(C)[C@@H]12` [(-)eseroline, (-)-eseroline, reference compound]: the IC50 in experiment [2], in experiment [3], in experiment [4], in [5] and in experiment [6] was > 10 µM in each case.

In the case of `c1ccc(C2(N3CCCCC3)CCCCC2)cc1` [phencyclidine], in the experiment on nicotinic AChR, the “modification of AChR activation” value is “modify noncompetitively the activation of the AChR”.

For `CN1CC[C@@]2(C)c3cc(O)ccc3N(C)[C@@H]12` (relative stereo) [(+/-)eseroline, reference compound], the IC50 in [2], in [3], in [4], in [5] and in experiment [6] was > 10 µM in each case.

On to Ethoprop [reference compound], for which the IC50 in [4] (setting [11]) is 120 µM; in experiment [5] (setting [12]), 0.21 µM; in experiment [6] (setting [13]), 0.3 µM.

Regarding `CN1CC[C@@]2(C)c3cc(OC(=O)NCc4ccccc4)ccc3N(C)[C@@H]12` [YU-69-1, eseroline benzylcarbamate], the IC50 in experiment [1] is 0.024 ± 0.005 µM; in experiment [2], 0.027 ± 0.01 µM; in experiment [3] it was 0.026 ± 0.008 µM; in experiment [4] it was 0.46 ± 0.08 µM; in experiment [5], 0.02 ± 0.011 µM; in experiment [6] it was 0.0027 ± 0.0016 µM.

In the case of `CNC(=O)Oc1ccc2c(c1)[C@]1(C)CCN(CCc3ccccc3)[C@@H]1N2C` [YU-112, N--phenylethyl physostigmine], the IC50 in [1] stood at 0.155 ± 0.028 µM; in experiment [2] it was 0.191 ± 0.056 µM; in [3], 0.213 ± 0.038 µM.

Turning to `COc1ccc(NC(=O)Oc2ccc3c(c2)[C@]2(C)CCN(C)[C@@H]2N3C)cc1` [YU-114, methoxyphenyl carbamoyleseroline], the half-inhibitory concentration (IC50) in experiment [4] came to 1.68 ± 0.38 µM; in [5], 0.224 ± 0.047 µM; in experiment [6] it was 0.0276 ± 0.0018 µM. In the experiment with acetylcholinesterase, the “reduction of antiacetylcholinesterase potency” value was “approximately 10 fold”. In the experiment with butyrylcholinesterase, the “increase of antibutyrylcholinesterase potency” value was “ten-fold”. For the same compound, in experiment [7], the “specificity acetyl- versus butyryl-cholinesterase” value is “approximately equally potent against both enzymes”.

Regarding `CNC(=O)Oc1ccc2c(c1)[C@]1(C)CCN(C)[C@@H]1N2C` [(-) physo, (-)-physostigmine], the “properties at the neuromuscular AChR” value with neuromuscular AChR is recorded as “blocking as well as agonist properties”.

`CNC(=O)Oc1ccc2c(c1)C1(C)CC[N+](C)(C)C1N2C` (single isomer, unassigned) [YU-117, methosulfate of (-)physostigmine]: the IC50 was 0.0371 ± 0.0066 µM in experiment [1] (setting [8]), 0.0283 ± 0.0037 µM in experiment [2] (setting [9]), 0.0294 ± 0.0052 µM in [3] (setting [10]) and 0.0335 ± 0.0006 µM in experiment [4] (setting [11]). Moreover, in the experiment on acetylcholinesterase, the “antiacetylcholinesterase potency in words” value is “as potent against acetylcholinesterase as physostigmine itself”. In experiment [7], the “specificity acetyl- versus butyryl-cholinesterase” value is reported as “more potent against acetylcholinesterase than against butyrylcholinesterase”.

Regarding `CN1CC[C@]2(C)c3cc(O)ccc3N(C)[C@H]12` [(+)eseroline, reference compound], the IC50 in experiment [2], in experiment [3], in [4], in experiment [5] and in experiment [6] was > 10 µM each time.

Regarding `C=CCN1CC[C@@]2(C)c3cc(OC(=O)NC)ccc3N(C)[C@@H]12` [YU-110, N--allyl physostigmine], the IC50 in [5] came to 0.0156 ± 0.0069 µM; in [6], 0.00265 ± 0.00201 µM. Also, in the experiment on acetylcholinesterase, the “antiacetylcholinesterase potency in words” value is “as potent against acetylcholinesterase as physostigmine itself”. Moreover, the “specificity acetyl- versus butyryl-cholinesterase” value in experiment [7] is “equipotent versus both acetyl- and butyryl-cholinesterase”.

Take `CNC(=O)Oc1ccc2c(c1)[C@]1(C)CCN[C@@H]1N2C` [YU-96, N--norphysostigmine]: in the experiment on acetylcholinesterase, the “antiacetylcholinesterase potency in words” value is listed as “as potent against acetylcholinesterase as physostigmine itself”. Also, in experiment [7], the “specificity acetyl- versus butyryl-cholinesterase” value is “equipotent versus both acetyl- and butyryl-cholinesterase”.

Take `CCCCCCCCNC(=O)Oc1ccc2c(c1)[C@]1(C)CCN(C)[C@@H]1N2C` [YU-71, eseroline octylcarbamate]: the figures for the IC50 in experiment [5] and in experiment [6] were 0.0087 ± 0.0037 µM and 0.0036 ± 0.001 µM, respectively.

For `C=CC[N+](C)(C)c1ccc(CCC(=O)CCc2ccc([N+](C)(C)CC=C)cc2)cc1` [BW284c51, reference compound], the IC50 in experiment [4] turned out to be 0.0073 µM.
